Data reported in PubChem BioAssay (NCI).
Several values for one entry are separate records, joined by “and”; a condition that tells them apart may be missing. Equal values may be shown once.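 Method: 48-hour compound exposure of cells in 96-well plates, five concentrations, linear interpolation of endpoints. The concentration for 50% growth inhibition is given as GI50. TGI is the concentration that stops growth completely.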

Legend:
Test in all cases: NCI anticancer screen, dose series, 48 h
NCI-H522 lung = test system: NCI-H522 lung
A498 renal = test system: A498 renal
KM12 colon = test system: KM12 colon
HOP-92 NSCLC = test system: HOP-92 NSCLC
SW-620 colon = test system: SW-620 colon
IGROV1 ovarian = test system: IGROV1 ovarian
OVCAR-8 ovarian = test system: OVCAR-8 ovarian
SR leukemia = test system: SR leukemia
RPMI-8226 leukemia = test system: RPMI-8226 leukemia
SN12C renal = test system: SN12C renal
SK-MEL-5 melanoma = test system: SK-MEL-5 melanoma
HCT-15 colon = test system: HCT-15 colon
HOP-62 NSCLC = test system: HOP-62 NSCLC
MOLT-4 leukemia = test system: MOLT-4 leukemia
OVCAR-5 ovarian = test system: OVCAR-5 ovarian
TK-10 renal = test system: TK-10 renal
OVCAR-4 ovarian = test system: OVCAR-4 ovarian
LOX IMVI melanoma = test system: LOX IMVI melanoma
NCI-H23 lung = test system: NCI-H23 lung
HCC-2998 colon = test system: HCC-2998 colon
MALME-3M melanoma = test system: MALME-3M melanoma
M14 melanoma = test system: M14 melanoma
A549 NSCLC = test system: A549 NSCLC
HCT-116 colon = test system: HCT-116 colon
PC-3 prostate = test system: PC-3 prostate
MDA-MB-231 breast = test system: MDA-MB-231 breast
HT29 colon = test system: HT29 colon
SK-OV-3 ovarian = test system: SK-OV-3 ovarian
EKVX NSCLC = test system: EKVX NSCLC
SK-MEL-2 melanoma = test system: SK-MEL-2 melanoma
SK-MEL-28 melanoma = test system: SK-MEL-28 melanoma
NCI-H460 lung = test system: NCI-H460 lung
NCI/ADR-RES ovarian = test system: NCI/ADR-RES ovarian
HL-60(TB) leukemia = test system: HL-60(TB) leukemia
SF-295 CNS = test system: SF-295 CNS
SF-268 CNS = test system: SF-268 CNS
786-0 renal = test system: 786-0 renal
COLO 205 colon = test system: COLO 205 colon
T-47D breast = test system: T-47D breast
CCRF-CEM leukemia = test system: CCRF-CEM leukemia
K-562 leukemia = test system: K-562 leukemia
U251 CNS = test system: U251 CNS
SNB-75 CNS = test system: SNB-75 CNS
BT-549 breast = test system: BT-549 breast
UO-31 renal = test system: UO-31 renal
UACC-257 melanoma = test system: UACC-257 melanoma
SF-539 CNS = test system: SF-539 CNS
NCI-H226 lung = test system: NCI-H226 lung
UACC-62 melanoma = test system: UACC-62 melanoma
HS 578T breast = test system: HS 578T breast
DU-145 prostate = test system: DU-145 prostate
OVCAR-3 ovarian = test system: OVCAR-3 ovarian
ACHN renal = test system: ACHN renal
CAKI-1 renal = test system: CAKI-1 renal
RXF 393 renal = test system: RXF 393 renal
MDA-MB-435 = test system: MDA-MB-435
MCF7 breast = test system: MCF7 breast

Question: Which results are given for CSc1ccc2c(c1)N(CCC1CCCCN1C)c1ccccc1S2 (centres undefined)?
Answer: GI50 (NCI-H522 lung): 6.29 µM; TGI (NCI-H522 lung): 21.8 µM; GI50 (A498 renal): 4.99 µM and 13.2 µM; TGI (A498 renal): 22.2 µM and 28.7 µM; GI50 (KM12 colon): 6.3 µM and 4.16 µM; TGI (KM12 colon): 18.8 µM and 16.1 µM; GI50 (HOP-92 NSCLC): 2.11 µM; TGI (HOP-92 NSCLC): 8.51 µM; GI50 (SW-620 colon): 10.8 µM and 2.52 µM; TGI (SW-620 colon): 24.6 µM and 7.23 µM; GI50 (IGROV1 ovarian): 5.89 µM; TGI (IGROV1 ovarian): 20.1 µM; GI50 (OVCAR-8 ovarian): 11.9 µM and 10.3 µM; TGI (OVCAR-8 ovarian): 27.5 µM and 29.3 µM; GI50 (SR leukemia): 4.45 µM and 3.41 µM; TGI (SR leukemia): 17.2 µM and 12.4 µM; GI50 (RPMI-8226 leukemia): 8.8 µM and 2.23 µM; TGI (RPMI-8226 leukemia): 27.1 µM and 6.05 µM; GI50 (SN12C renal): 4.81 µM and 6.05 µM; TGI (SN12C renal): 18.8 µM and 19.3 µM; GI50 (SK-MEL-5 melanoma): 1.86 µM and 1.64 µM; TGI (SK-MEL-5 melanoma): 3.89 µM and 3.02 µM; GI50 (HCT-15 colon): 5.11 µM and 4.01 µM; TGI (HCT-15 colon): 17.5 µM and 14.6 µM; GI50 (HOP-62 NSCLC): 9.08 µM and 9.59 µM; TGI (HOP-62 NSCLC): 24 µM and 25.9 µM; GI50 (MOLT-4 leukemia): 3.61 µM and 3.13 µM; TGI (MOLT-4 leukemia): 13.6 µM and 10 µM; GI50 (OVCAR-5 ovarian): 10.1 µM and 3.83 µM; TGI (OVCAR-5 ovarian): 22 µM and 13.2 µM; GI50 (TK-10 renal): 13.8 µM and 4.11 µM; TGI (TK-10 renal): 28.5 µM and 13.4 µM; GI50 (OVCAR-4 ovarian): 7.99 µM and 5.22 µM; TGI (OVCAR-4 ovarian): 20.3 µM and 16.9 µM; GI50 (LOX IMVI melanoma): 3.44 µM and 1.78 µM; TGI (LOX IMVI melanoma): 14.8 µM and 3.34 µM; GI50 (NCI-H23 lung): 10.3 µM and 8.49 µM; TGI (NCI-H23 lung): 24 µM and 22.7 µM; GI50 (HCC-2998 colon): 3.12 µM and 4.54 µM; TGI (HCC-2998 colon): 11.5 µM and 14.1 µM; GI50 (MALME-3M melanoma): 6.91 µM and 1.67 µM; TGI (MALME-3M melanoma): 23.8 µM and 3.67 µM; GI50 (M14 melanoma): 2.17 µM and 1.85 µM; TGI (M14 melanoma): 4.89 µM and 3.76 µM; GI50 (A549 NSCLC): 10.9 µM and 2.65 µM; TGI (A549 NSCLC): 24.1 µM and 10.3 µM; GI50 (HCT-116 colon): 5.58 µM and 3.3 µM; TGI (HCT-116 colon): 19 µM and 12.9 µM; GI50 (PC-3 prostate): 4.27 µM and 3.63 µM; TGI (PC-3 prostate): 16.6 µM and 13.8 µM; GI50 (MDA-MB-231 breast): 2.08 µM and 2.4 µM; TGI (MDA-MB-231 breast): 5.99 µM and 6.11 µM; GI50 (HT29 colon): 4.08 µM and 2.54 µM; TGI (HT29 colon): 15.1 µM and 7.9 µM; GI50 (SK-OV-3 ovarian): 13 µM and 13.8 µM; TGI (SK-OV-3 ovarian): 27.5 µM and 29 µM; GI50 (EKVX NSCLC): 7.93 µM and 8.06 µM; TGI (EKVX NSCLC): 23.5 µM and 22.7 µM; GI50 (SK-MEL-2 melanoma): 10.7 µM; TGI (SK-MEL-2 melanoma): 25.8 µM; GI50 (SK-MEL-28 melanoma): 4.08 µM and 1.86 µM; TGI (SK-MEL-28 melanoma): 14.3 µM and 3.63 µM; GI50 (NCI-H460 lung): 4.52 µM and 2.03 µM; TGI (NCI-H460 lung): 17.9 µM and 4.28 µM; GI50 (NCI/ADR-RES ovarian): 10.4 µM and 4.76 µM; TGI (NCI/ADR-RES ovarian): 24.1 µM and 18.5 µM; GI50 (HL-60(TB) leukemia): 13.4 µM and 3.12 µM; TGI (HL-60(TB) leukemia): 30.3 µM and 9.22 µM; GI50 (SF-295 CNS): 8.64 µM and 2.86 µM; TGI (SF-295 CNS): 22.6 µM and 8.7 µM; GI50 (SF-268 CNS): 7.7 µM and 4.85 µM; TGI (SF-268 CNS): 21.6 µM and 17.7 µM; GI50 (786-0 renal): 11.7 µM and 4.92 µM; TGI (786-0 renal): 25.7 µM and 19.4 µM; GI50 (COLO 205 colon): 6.22 µM and 3.57 µM; TGI (COLO 205 colon): 24 µM and 13.2 µM; GI50 (T-47D breast): 5.82 µM and 3.4 µM; TGI (T-47D breast): 23.3 µM and 11.4 µM; GI50 (CCRF-CEM leukemia): 5.45 µM and 2.26 µM; TGI (CCRF-CEM leukemia): 21.1 µM and 27.4 µM; GI50 (K-562 leukemia): 2.13 µM; TGI (K-562 leukemia): 4.4 µM; GI50 (U251 CNS): 5.92 µM and 3.53 µM; TGI (U251 CNS): 19.2 µM and 12.2 µM; GI50 (SNB-75 CNS): 5.64 µM and 3.49 µM; TGI (SNB-75 CNS): 22.1 µM and 12.3 µM; GI50 (BT-549 breast): 12.7 µM and 3.23 µM; TGI (BT-549 breast): 27.7 µM and 10.4 µM; GI50 (UO-31 renal): 3.26 µM and 3.61 µM; TGI (UO-31 renal): 14.5 µM and 15.4 µM; GI50 (UACC-257 melanoma): 3.08 µM and 2.14 µM; TGI (UACC-257 melanoma): 11.6 µM and 6.3 µM; GI50 (SF-539 CNS): 14.1 µM and 5.63 µM; TGI (SF-539 CNS): 28.2 µM and 18.2 µM; GI50 (NCI-H226 lung): 11.2 µM and 11.4 µM; TGI (NCI-H226 lung): 28.5 µM and 30.3 µM; GI50 (UACC-62 melanoma): 3.16 µM and 3.05 µM; TGI (UACC-62 melanoma): 13.6 µM and 7.13 µM; GI50 (HS 578T breast): 6.89 µM and 3.01 µM; TGI (HS 578T breast): 28.1 µM and 13.2 µM; GI50 (DU-145 prostate): 6.06 µM and 4.15 µM; TGI (DU-145 prostate): 17.9 µM and 14.2 µM; GI50 (OVCAR-3 ovarian): 10.7 µM and 4.28 µM; TGI (OVCAR-3 ovarian): 23.7 µM and 21.7 µM; GI50 (ACHN renal): 4.39 µM and 3.75 µM; TGI (ACHN renal): 15.2 µM and 13.5 µM; GI50 (CAKI-1 renal): 3.23 µM and 4.91 µM; TGI (CAKI-1 renal): 13 µM and 18.3 µM; GI50 (RXF 393 renal): 3.2 µM and 1.56 µM; TGI (RXF 393 renal): 15.4 µM and 5.23 µM; GI50 (MDA-MB-435): 3.48 µM and 3.1 µM; TGI (MDA-MB-435): 13.6 µM and 11.1 µM; GI50 (MCF7 breast): 5.63 µM and 2.2 µM; TGI (MCF7 breast): 21.7 µM and 4.48 µM
